Laboratory results taken from US12098352B2, “Stem cell-based lung-on-chip models” (EMULATE, INC., priority 2018, dated 2024).
“Also recorded” adds a separate entry of the source.

What was measured:
platelets = assay: Blood perfusion of LPS pretreated Alveolar-chip vascular channel; format: cell-based, human; conditions: LPS pretreated (inflamed) chip
Method: For further validation on the functionality of the endothelial compartment, the vascular compartment comprising an endothelial cell lining, was exposed to blood under flow. In one embodiment, an LPS pretreated microfluidic Alveolar-chip was perfused with blood, i.e. blood was flowed through the spiral channel. In one embodiment, a sample of human blood, e.g. 5 ml of whole blood isolated the same day from a healthy person (e.g. in citrate or heparin anticoagulation compounds) was perfused through the bottom spiraled channel with Ca2+ and Mg2+ to counteract the anticoagulation compounds, at 30 ml/hour. […] Left, schematic diagrams of the upper channels blue and ports blue dots, and spiral lower vascular endothelial channel red and ports red dots. […] Larger pink areas represent aggregation of platelets and adhered platelets are observed at the lower sharp bend.

ICAM1 = ICAM1 immunostaining of endothelial cells (HMECs) lining the vascular surface of the Chip; format: cell-based, human
Method: FIG. 22A Effect of LPS on Vascular Expression of ICAM1. […] Representative images (20×) of endothelial cells (HMECs) lining the vascular surface of the Chip fixed and stained for ICAM1 (red) at 24 h post LPS treatment of the alveolar epithelial compartment. Nuclei are colored blue. […] IL-6, il-8 and MCP-1 have 40-90 fold increases in relation to untreated controls. FIG. 22C Detection of exemplary Lung-Specific Cytokines and Chemokines, IL-6; IL-8; MCP-1 and RANTES, in response to LPS stimulation. Co-cultures of Epithelium/Fibroblasts/Vasculature induced higher levels of cytokines than co-cultures of Epithelium/Vasculature; Fibroblasts/Vasculature or Vasculature alone.
Interconnectivity refers to the observation that adding a compound to the epithelial side may induce a cytokine mediated response in the endothelial side. […] In other words, inflamed epithelial cells modulate function of the endothelial cells.
Open-Top Organ-Chips were fixed in 10% neutral buffered formalin. Endothelial cells were stained inside the chip by performinutesg the immunofluorescence steps described below directly inside the microfluidic channel. Stroma equivalents were stained as described by the step below inside the chip or alternatively extracted from the chip and processed for immunohistochemistry analysis. […]

**Q.** Lipopolysaccharide [LPS] was tested. Which “platelet response on blood perfusion” value (platelets) did it give?
**A.** platelet adhesion and aggregation

**Q.** What about the “ICAM expression, endothelial cells exposed directly” value (ICAM1; LPS directly on endothelial cells, no epithelium) of the same substance?
**A.** does not induce expression of ICAM

**Q.** And the “vascular expression of ICAM1” value (ICAM1; LPS on the alveolar epithelial compartment, 24 h)?
**A.** induced vascular expression of ICAM1; also recorded: induces expression of ICAM on endothelial cells; also recorded: induces ICAM1 expression only in presence of epithelial cells
